Experiments:
[1] = target: T1, NMDA receptor glycine site (Rattus norvegicus, UniProt P35439); assay: Test A: Inhibition of binding of [3H]-MDL105,519 to brain membranes; conditions: inhibition of 1.2 nM [3H]MDL105,519 binding to brain membranes; rat or human membranes not specified
T1 construct: The rat brain membranes used in the experiments were obtained from Analytical Biological Services Inc; tissue Analytical Biological Services Inc; host or cells: rat brain membranes (cerebral cortex and hippocampus, Sprague Dawley)
Protocol: Test A: Inhibition of Binding of [^3H]-MDL105,519:
Binding of compounds to the NMDA receptor glycine site may be assessed by measuring the ability of test compounds to inhibit the binding of tritiated MDL105,519 to brain membranes bearing the receptor.
Rat Brain Membranes: The rat brain membranes used in the experiments were obtained from Analytical Biological Services Inc., and were prepared substantially in accordance with the method of B. M. Baron et al., J. Pharmacol. Exp. Ther. 250, 162 (1989). Briefly, fresh brain tissue including cerebral cortex and hippocampus from […] Sprague Dawley rats was homogenized in 0.32 M sucrose and centrifuged at low speed to separate cellular membranes from other cellular components. The membranes were then washed 3 times using deionized water, followed by treatment with 0.04% Triton X-100. Finally, membranes were washed six times in 50 mM Tris citrate buffer, pH 7.4, and frozen at −80° C. until use.
[^3H]MDL105,519 (72 Ci/mmol) was purchased from Amersham. Cold MDL105,519 was purchased from Sigma/RBI. Binding assays were performed substantially in accordance with the protocol of B. M. Baron et al., J. Pharmacol. Exp. Ther. 279, 62 (1996), as follows. On the day of the experiment, brain membranes were thawed at room temperature and suspended in 50 mM tris acetate buffer, pH 7.4 (“TAB”). Seventy-five micro grams per milliliter protein (by using the BioRad dye) were used for competition binding. The experiments were carried out using 96-well plates. Membranes were incubated with 20 μL of compounds of various concentrations and 1.2 nM [^3H]MDL105,519 for 30 minutes at room temperature in a total volume of 250 μL. Non specific binding was determined by using 100 μM of unlabeled MDL105,519. The unlabeled MDL105,519 and compounds were dissolved as 12.5 mM stock solutions in DMSO. Final DMSO concentration in each well was kept below 1%, which concentration was found not to alter the binding results. After incubation, unbound [^3H]MDL105,519 was removed by filtration onto GF/B Unifilter plates using a Packard harvester. Filters were washed four times with ice cold TAB (total of 1.2 mL buffer). The plates were dried overnight at room temperature and bound radioactivity was measured on a Packard TopCount after the addition of 45 μL per well of the MICROSCINT O.
Human Brain Membranes: Human brain membranes were obtained from Analytical Biological Services Inc., and assays were performed as described for rat membranes.
Data analysis: Data was analyzed using a Microsoft Excel spreadsheet and GraphPad Prizm software and potency of compounds is expressed as the Ki (nM).

[2] = tested on: CCI rats (thermal hyperalgesia); conditions: oral, three times daily for 5 days
Text: The anti-hyperalgesic properties of a compound may be tested with the Chronic Constriction Injury (“CCI”) model.
Procedurally, Sprague-Dawley rats (250-350 g) are anesthetized with sodium pentobarbital and the common sciatic nerve is exposed at the level of the mid thigh by blunt dissection through the biceps femoris. A section of nerve (about 7 mm), proximal to the sciatic trifucation, is freed of tissue and ligated at four positions with chromic gut suture. The suture is tied with about 1 mm spacing between ligatures. The incision is closed in layers and the animals are allowed to recuperate. […] To perform the test, animals are habituated on an elevated glass floor. A radiant heat source is aimed at the mid-plantar hindpaw (sciatic nerve territory) through the glass floor with a 20 second cut-off used to prevent injury to the skin. The latencies for the withdrawal reflex in both hind paws are recorded.
Responses to test compounds are evaluated at different times after oral administration to determine the onset and duration of compound effect. When performing the test, groups of CCI rats receive either vehicle or the test compound orally three times daily for 5 days. […] Compound efficacy is expressed as mean percentage decrease of hyperalgesia compared to that of vehicle-treated animals, calculated as follows: [formula]

Compound: O=c1c2ccc(Cl)cc2[nH]c2c(O)nn(C3CCSc4ccccc43)c(=O)c12 (racemic) [Ex. 1, (+/−)-7-chloro-4-hydroxy-2-(2H,3H,4H-Benzo[e]thian-4-yl)-1,2,5,10-tetrahydropyridazino[4,5-b]quinoline-1,10-dione]
- Ki [1]: 411 nM
- Test C % Inh. (percent decrease of hyperalgesia at MED) ([2]; at the MED, versus vehicle-treated animals): 56%
- Test C MED (minimum effective dose) ([2]; dose giving statistically significant decrease in hyperalgesia): 30 mg/kg/day

Compound: O=c1c2ccc(Cl)cc2[nH]c2c(O)nn(C3CCOc4ccccc43)c(=O)c12 (racemic) [Ex. 2, (+/−)-7-Chloro-4-hydroxy-2-(chroman-4-yl)-1,2,5,10-tetrahydropyridazino[4.5-b]quinoline-1.10-dione]
- melting point: > 300 °C
- Ki [1]: 557 nM

Compound: O=c1c2ccc(Cl)cc2[nH]c2c(O)nn(C3CCCc4ccccc43)c(=O)c12 (racemic) [Ex. 4, (+/−)-7-Chloro-4-hydroxy-2-(1,2,3,4-tetrahydronaphth-1-yl)-1.2,5,10-tetrahydropyridazino[4,5-b]quinoline-1,10-dione]
- melting point: > 300 °C
- Ki [1]: 725 nM

Compound: O=c1c2ccc(Cl)cc2[nH]c2c(O)nn(C3CCCc4sccc43)c(=O)c12 (racemic) [Ex. 3, (+/−)-7-Chloro-4-hydroxy-2-(4,5,6,7-tetrahydrobenzo[b]thien-4-yl)-1,2,5,10-tetrahydropyridazino[4,5-b]quinoline-1.10-dione]
- melting point: > 300 °C
- Ki [1]: 514 nM
